Among the test systems are M14; COLO 205; HT-29; MDA-MB-435; CAKI-1; Malme-3M; HCT-15; TK-10; HOP-62; A549; K562; SN12C; RXF 393; SK-MEL-28; SF-295; HCC 2998; SK-MEL-2; RPMI-8226.
Test in all cases: growth of human tumour cells (NCI), 48 h

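Where inhibition never reached the appropriate level, the endpoint shown equals the highest concentration tested. Otherwise, values were interpolated linearly from a five-concentration, 48-hour dose response in 96-well plates. GI50 is the concentration that inhibits growth by half.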 Calls of active or inactive are those of the source. Rule as the data show it: active = GI50 up to about 1.1 µM and inactive = higher.

On to `OCC1C(OCc2ccccc2)C(OCc2ccccc2)C(OCc2ccccc2)CN1Cc1ccccc1` (stereo not drawn), for which the GI50 is 37.2 µM (inactive) in the assay with M14; 14.3 µM (inactive) in the assay on COLO 205; 9.62 µM (inactive) in the assay with HT-29; 24.8 µM (inactive) in the assay on MDA-MB-435; > 100 µM (inactive) with CAKI-1; 27.9 µM (inactive) with Malme-3M. The GI50 in the assay on HCT-15 is 30.5 µM; in the assay with TK-10, 42.8 µM (inactive); in the assay on HOP-62, 33 µM (inactive); in the assay with A549, 18.7 µM (inactive); with K562 it was 16.3 µM (inactive); in the assay with SN12C, 14.5 µM (inactive). Also, the GI50 with RXF 393 is 17.4 µM (inactive); in the assay on SK-MEL-28, 88.9 µM (inactive); with SF-295 it was 30.3 µM (inactive); with HCC 2998, 28.2 µM (inactive).

Consider `COC(=O)C1=C(C(=O)OC)C(OO)(c2ccccc2)OC1=O` (stereo not drawn), for which the GI50 with M14 is > 100 µM (inactive); with COLO 205 it was > 100 µM (inactive); with HT-29, 35.9 µM (inactive); in the assay on MDA-MB-435 it was > 100 µM (inactive); with CAKI-1, > 100 µM (inactive); in the assay on Malme-3M it was > 100 µM (inactive). Also, the GI50 was 40.6 µM in the assay on HCT-15; > 100 µM (inactive) with TK-10; > 100 µM (inactive) with A549; 52.7 µM (inactive) with K562; 86.3 µM (inactive) with SN12C; > 100 µM (inactive) with RXF 393. For the same compound, the GI50 was > 100 µM (inactive) with SK-MEL-28, 55.2 µM (inactive) in the assay with SK-MEL-2, > 100 µM (inactive) in the assay on SF-295 and > 100 µM (inactive) in the assay with HCC 2998.

Turning to `C=CCOn1c(C=C)nc2c(C)cccc21`, the GI50 with M14 was 3.61 µM (inactive); with COLO 205, 1.95 µM (inactive); in the assay with HT-29, 3.36 µM (inactive); in the assay on MDA-MB-435, 1.63 µM (inactive); in the assay with CAKI-1, 2.06 µM (inactive); with Malme-3M, 11.6 µM (inactive). The GI50 was 3.07 µM in the assay on HCT-15; 2.63 µM (inactive) in the assay with TK-10; 3.77 µM (inactive) in the assay with HOP-62; 3.38 µM (inactive) in the assay with A549; 3.57 µM (inactive) in the assay on K562; 3.63 µM (inactive) with SN12C. The GI50 was 10.6 µM (inactive) with SK-MEL-28; 2.21 µM (inactive) in the assay with SK-MEL-2; 5.58 µM (inactive) in the assay on SF-295; 6.08 µM (inactive) in the assay with HCC 2998; 2.43 µM (inactive) in the assay with RPMI-8226.

For the compound `CCOC(=O)NC(=S)NN(C)C1=NCC(C)(C)S1`, the GI50 was > 100 µM (inactive) in the assay on COLO 205; > 100 µM (inactive) in the assay on MDA-MB-435; > 100 µM (inactive) in the assay with CAKI-1; greater than 100 µM in the assay with HCT-15; > 100 µM (inactive) in the assay with TK-10; > 100 µM (inactive) in the assay on HOP-62. Also, the GI50 with A549, in the assay on K562, in the assay on SN12C, in the assay on RXF 393, in the assay with SK-MEL-28 and with SK-MEL-2 was > 100 µM (inactive) each time. Further, the GI50 in the assay on SF-295 and in the assay with RPMI-8226 was > 100 µM (inactive) each time.

With `CCc1cccc2c3c([nH]c12)-c1ccccc1NC(=O)C3`, the GI50 in the assay with M14 was > 100 µM (inactive); with COLO 205 it was > 100 µM (inactive); in the assay with HT-29 it was > 100 µM (inactive); in the assay on MDA-MB-435, 35.3 µM (inactive); in the assay with CAKI-1, 43.6 µM (inactive); in the assay on HCT-15, 84.1 µM. Also, the GI50 with TK-10 was > 100 µM (inactive); with HOP-62, > 100 µM (inactive); with A549 it was > 100 µM (inactive); in the assay with K562, 19.4 µM (inactive); in the assay with SN12C, 95.5 µM (inactive); in the assay on SK-MEL-28 it was > 100 µM (inactive). Also, the results for the GI50 in the assay with SK-MEL-2, in the assay on SF-295 and in the assay with RPMI-8226 were > 100 µM (inactive), > 100 µM (inactive) and 67.5 µM (inactive), respectively.

With `COc1ccccc1NC(=O)C1=C(C)NC(C)=C(C(=O)Nc2ccccc2OC)C1c1cccc2c1OCO2`, the GI50 in the assay with M14 is > 100 µM (inactive); in the assay with COLO 205, > 100 µM (inactive); with HT-29, > 100 µM (inactive); in the assay on CAKI-1 it was > 100 µM (inactive); in the assay with Malme-3M it was > 100 µM (inactive); in the assay with HCT-15, greater than 100 µM. Besides, the GI50 is > 100 µM (inactive) with TK-10; > 100 µM (inactive) with HOP-62; 62.7 µM (inactive) in the assay with A549; 51.1 µM (inactive) with K562; > 100 µM (inactive) in the assay on SN12C; > 100 µM (inactive) in the assay on SK-MEL-28. The GI50 with SK-MEL-2 is 48.2 µM (inactive); with SF-295, > 100 µM (inactive); with HCC 2998, 85.7 µM (inactive); in the assay with RPMI-8226, 33 µM (inactive).

Regarding `CC1CCC(O)(C(C)(C(=O)O)c2ccccc2)CC1` (stereo not drawn), the GI50 in the assay with M14 was 49 µM (inactive); with HT-29, > 100 µM (inactive); in the assay with MDA-MB-435 it was > 100 µM (inactive); with CAKI-1 it was 57.4 µM (inactive); in the assay on Malme-3M, 63.4 µM (inactive); with HCT-15, greater than 100 µM. The GI50 in the assay on TK-10 was > 100 µM (inactive); with HOP-62, 68.1 µM (inactive); in the assay with A549 it was 42.2 µM (inactive); in the assay on K562, > 100 µM (inactive); in the assay with SN12C, > 100 µM (inactive); in the assay with RXF 393 it was > 100 µM (inactive). Besides, the GI50 with SK-MEL-28, in the assay with SK-MEL-2 and in the assay on SF-295 was > 100 µM (inactive) each time.

`O=C(Nc1sccc1S(=O)(=O)c1ccc(Cl)cc1)C(F)(F)F`: the GI50 with M14 was 38.3 µM (inactive); in the assay with COLO 205, 17.1 µM (inactive); with HT-29, 25 µM (inactive); with MDA-MB-435 it was 39.1 µM (inactive); with CAKI-1, 24.9 µM (inactive); in the assay with Malme-3M it was 27.2 µM (inactive). Also, the GI50 is 29.5 µM in the assay with HCT-15; 78.7 µM (inactive) in the assay with TK-10; 37.4 µM (inactive) in the assay on HOP-62; 29.2 µM (inactive) in the assay on A549; 11.5 µM (inactive) in the assay with K562; 10.3 µM (inactive) in the assay on SN12C. Besides, the GI50 with SK-MEL-28 was 74.3 µM (inactive); in the assay on SK-MEL-2, 13.5 µM (inactive); in the assay with SF-295, 26.3 µM (inactive); in the assay on HCC 2998, 22.9 µM (inactive); in the assay with RPMI-8226 it was 3.88 µM (inactive).

Consider `O=C1CSC(c2ccc(Cl)cc2)N1c1ccc(-c2ccc(-n3c(-c4ccccc4)nc4ccccc4c3=O)cc2)cc1` (stereo not drawn), for which the GI50 with M14 was 43.6 µM (inactive); in the assay on COLO 205 it was 27.8 µM (inactive); with HT-29, 15.2 µM (inactive); in the assay with MDA-MB-435 it was 27.4 µM (inactive); in the assay on CAKI-1, 29.4 µM (inactive); with Malme-3M it was 28.4 µM (inactive). The GI50 in the assay on HCT-15 was 33.2 µM; in the assay with TK-10, 69 µM (inactive); in the assay with HOP-62 it was 61.4 µM (inactive); in the assay with A549 it was 37.5 µM (inactive); in the assay with K562, 37.2 µM (inactive); in the assay with SN12C it was 68.1 µM (inactive). Also, the GI50 with SK-MEL-28 was 41.1 µM (inactive); in the assay on SK-MEL-2 it was 51.5 µM (inactive); in the assay with SF-295, 37.5 µM (inactive); in the assay on HCC 2998 it was 93.5 µM (inactive); with RPMI-8226 it was 55.7 µM (inactive).

Take `CN(C)C=C1C(Cl)=C(C=O)CC(C=O)=C1Cl`: the GI50 in the assay with M14 was 12.2 µM (inactive); in the assay with COLO 205 it was 15.6 µM (inactive); with HT-29 it was 14 µM (inactive); in the assay with CAKI-1, 11.3 µM (inactive); with Malme-3M it was 10.4 µM (inactive); in the assay with HCT-15 it was 3.42 µM. Further, the GI50 with TK-10 was 16.7 µM (inactive); with HOP-62 it was 23.7 µM (inactive); in the assay on A549 it was 86.9 µM (inactive); in the assay with K562, 3.03 µM (inactive); in the assay on SN12C, > 100 µM (inactive); in the assay with RXF 393, 6.21 µM (inactive). In addition, the GI50 is 6.59 µM (inactive) in the assay with SK-MEL-28; 17.6 µM (inactive) in the assay on SK-MEL-2; 18.3 µM (inactive) with SF-295; 15.2 µM (inactive) with HCC 2998; 2.39 µM (inactive) in the assay on RPMI-8226.

Regarding `O=[N+]([O-])c1ccc2[nH]c(-c3ccc(Cl)cc3)nc2c1`, the GI50 is 19.1 µM (inactive) in the assay with M14; 16.7 µM (inactive) with COLO 205; 18.5 µM (inactive) in the assay on HT-29; 23.6 µM (inactive) in the assay with MDA-MB-435; 31.1 µM (inactive) with CAKI-1; 28.4 µM (inactive) with Malme-3M. Moreover, the GI50 in the assay on HCT-15 was 14.9 µM; in the assay on TK-10, 32.6 µM (inactive); in the assay on HOP-62 it was 21.5 µM (inactive); in the assay on A549, 20.8 µM (inactive); with SN12C it was 29.7 µM (inactive); in the assay on SK-MEL-28 it was 39 µM (inactive). Moreover, the figures for the GI50 in the assay with SF-295 and with RPMI-8226 were 20.3 µM (inactive) and 23.2 µM (inactive), respectively.

Consider `Cc1ccc2c(O)cc(-c3ccc4ccccc4c3)nc2n1`, for which the GI50 is 8.89 µM (inactive) with M14; 2.11 µM (inactive) with COLO 205; 3.75 µM (inactive) with HT-29; 4.46 µM (inactive) in the assay with Malme-3M; 3.54 µM in the assay with HCT-15; 8.45 µM (inactive) in the assay with TK-10. Moreover, the GI50 in the assay with HOP-62 was 7.13 µM (inactive); in the assay with A549, 7.89 µM (inactive); in the assay with K562, 3.41 µM (inactive); in the assay with SN12C it was 5.3 µM (inactive); in the assay with SK-MEL-28, 5.9 µM (inactive); in the assay with SK-MEL-2 it was 5.97 µM (inactive). Also, the GI50 is 10.8 µM (inactive) in the assay on HCC 2998 and 4.48 µM (inactive) with RPMI-8226.

Turning to `CCOP(=O)(OCC)/C(C#N)=C/c1coc2cc(C)cc(C)c2c1=O`, the GI50 with M14, in the assay on COLO 205, in the assay on HT-29, with MDA-MB-435, in the assay on CAKI-1 and in the assay on Malme-3M was > 100 µM (inactive) throughout. Also, the GI50 in the assay with HOP-62, in the assay with A549, in the assay with K562, with SN12C, with SK-MEL-28 and in the assay on SK-MEL-2 was > 100 µM (inactive) in each case. Besides, the GI50 in the assay with SF-295, with HCC 2998 and in the assay with RPMI-8226 was > 100 µM (inactive) throughout.
